The values below come from patent publication US6281211A, “Substituted semicarbazides and the use thereof” (Euro-Celtique S.A., priority 2000, dated 2001).

Assay [1] concerns maximal electroshock-induced seizures (MES). Put plainly: maximal electroshock-induced seizures (MES) test in mice. In kind it is in vivo. The note with it: Mus musculus. As for the experimental part: The compounds of the present invention may be tested for in vivo anticonvulsant activity after iv. po or ip injection using a number of anticonvulsant tests in mice (audiogenic seizure model in DBA-2 mice, pentylenetetrazol-induced seizures in mice, maximum electroshock seizure test (MES)).
The ability of 1-[4-(4-fluorophenoxy)benzyl]semicarbazide to block maximal electroshock-induced seizures (MES) was determined by the following procedure.
Seizures were induced by application of current (50 mA, 60 pulses/sec, 0.8 msec pulse width, 1 sec duration, D.C.) using a Ugo Basile ECT device (model 7801). Mice were restrained by gripping the loose skin on their dorsal surface and saline-coated corneal electrodes were held lightly against the two cornea. […] A tonic seizure was defined as a hindlimb extension in excess of 90 degrees from plane of the body.
1-[4-(4-Fluorophenoxy)benzyl]semicarbazide was administered iv to mice 10 min before the test procedure.
A general note: In the maximal electroshock model the usual endpoint is tonic extension of the hind limbs.

Assay [2] addresses T1, hSkM1 sodium channels (Homo sapiens, UniProt P35499).
T1 construct: expressed in transfected cells
Put plainly: Electrophysiological assay: whole-cell patch-clamp recordings of voltage-gated Na+ currents in HEK-293 cells stably expressing hSkM1. Format: cell-based. As for the experimental part:
Electrophysiological Assay:
Cellpreparation: HEK-293 cells stably expressing the hSkM1 isoform of Na^+ channels (generous gift from Dr. A. L. George, Vanderbilt University Medical School) were cultured using standard techniques, as described previously (Verdoorn, T. A, et al., Neuron 4:919-928 (1990)). For electrophysiology, cells were plated onto 35 mm Petri dishes (pre-coated with poly-D-lysine) at a density of 1:40 on the day of re-seeding from confluent cultures. Cells are suitable for recordings for 2-3 days after plating.
Patch-clamp recordings of voltage-sensitive Na^+ currents: Whole-cell voltage-clamp recordings were made using conventional patch-clamp techniques (Hamill et al, Pfluegers Arch. 391:85-100 (1981)) with an Axopatch 200 A amplifier (Axon Instruments, Foster City, Calif.). Recordings were made within 2-3 hours after neuron dissociation. The recording chamber was continuously superfused with the external solution (150 mM NaCl, 5.4 mM KCl, 1.8 mM CaCl2, 1 mM MgCl2, 10 mM HEPES, 10 mM glucose, pH 7.4 (NaOH)) at a speed of about 1 ml/min. Recording pipettes were pulled from thick-walled capillaries (WPI, Sarasota, Fla.) and fire-polished. The pipette resistances ranged from 1 to 3 M.OMEGA. when the pipettes were filled with internal solution containing (in mM): 110 CsF, 10 NaCl, 5 MgCl2, 11 EGTA, 10 HEPES, pH adjusted to 7.4 with CsOH. Osmolality was set with a difference of 15-20 mmol/kg between external and internal solutions (lower inside the cell). Drugs and intervening wash-outs were applied through a linear array of flow pipes (Drummond Microcaps, 2-μl, 64-mm length). Compounds are dissolved in dimethylsulfoxide (DMSO) to make a […] stock solution, which was subsequently diluted into the external solution to give final concentrations of 0.1-100 μM. At the highest (1%) concentration, DMSO inhibited the size of Na^+ current only slightly. Currents were recorded at room temperature (22-25° C.), filtered at 5 kHz with an active 8-pole Bessel filter (Frequency Devices, Haverhill, Mass.), digitized at 10-50-μs intervals, and stored using Digidata 1200 analog/digital interface with Pclamp6/Clampex software (Axon Instruments).Series resistance was cancelled typically by ~75% when necessary. The inhibitory potency of drugs was assessed by measuring reductions in the peak amplitude of Na^+ currents induced by increasing concentrations of compounds tested. Na^+ currents were elicited by stepping membrane voltage from holding potentials over the range -100 mV to -50 mV, to a pulse potential of -10 mV. The test pulse duration was 5-10 msec, repeated at a frequency ≤1 Hz. Concentration-inhibition curves were fitted with equation 1:
I/Icontrol =1/(1+([compound]/IC50)) Eq. 1 […]
A general note: In patch-clamp work, channel activity is measured electrically.

Assay [3] deals with global and focal ischemia. To be noted: animal models of global and focal ischemia; cited from earlier work.
Assay [4] has as its system ALS. To be noted: subset of patients with ALS; cited from earlier work.
[5] abbreviates: HEK-293 cells stably expressing hSkM1.

Like-named read-outs stand apart in the source and are kept apart here.

T1 sequence (P35499 whole entry): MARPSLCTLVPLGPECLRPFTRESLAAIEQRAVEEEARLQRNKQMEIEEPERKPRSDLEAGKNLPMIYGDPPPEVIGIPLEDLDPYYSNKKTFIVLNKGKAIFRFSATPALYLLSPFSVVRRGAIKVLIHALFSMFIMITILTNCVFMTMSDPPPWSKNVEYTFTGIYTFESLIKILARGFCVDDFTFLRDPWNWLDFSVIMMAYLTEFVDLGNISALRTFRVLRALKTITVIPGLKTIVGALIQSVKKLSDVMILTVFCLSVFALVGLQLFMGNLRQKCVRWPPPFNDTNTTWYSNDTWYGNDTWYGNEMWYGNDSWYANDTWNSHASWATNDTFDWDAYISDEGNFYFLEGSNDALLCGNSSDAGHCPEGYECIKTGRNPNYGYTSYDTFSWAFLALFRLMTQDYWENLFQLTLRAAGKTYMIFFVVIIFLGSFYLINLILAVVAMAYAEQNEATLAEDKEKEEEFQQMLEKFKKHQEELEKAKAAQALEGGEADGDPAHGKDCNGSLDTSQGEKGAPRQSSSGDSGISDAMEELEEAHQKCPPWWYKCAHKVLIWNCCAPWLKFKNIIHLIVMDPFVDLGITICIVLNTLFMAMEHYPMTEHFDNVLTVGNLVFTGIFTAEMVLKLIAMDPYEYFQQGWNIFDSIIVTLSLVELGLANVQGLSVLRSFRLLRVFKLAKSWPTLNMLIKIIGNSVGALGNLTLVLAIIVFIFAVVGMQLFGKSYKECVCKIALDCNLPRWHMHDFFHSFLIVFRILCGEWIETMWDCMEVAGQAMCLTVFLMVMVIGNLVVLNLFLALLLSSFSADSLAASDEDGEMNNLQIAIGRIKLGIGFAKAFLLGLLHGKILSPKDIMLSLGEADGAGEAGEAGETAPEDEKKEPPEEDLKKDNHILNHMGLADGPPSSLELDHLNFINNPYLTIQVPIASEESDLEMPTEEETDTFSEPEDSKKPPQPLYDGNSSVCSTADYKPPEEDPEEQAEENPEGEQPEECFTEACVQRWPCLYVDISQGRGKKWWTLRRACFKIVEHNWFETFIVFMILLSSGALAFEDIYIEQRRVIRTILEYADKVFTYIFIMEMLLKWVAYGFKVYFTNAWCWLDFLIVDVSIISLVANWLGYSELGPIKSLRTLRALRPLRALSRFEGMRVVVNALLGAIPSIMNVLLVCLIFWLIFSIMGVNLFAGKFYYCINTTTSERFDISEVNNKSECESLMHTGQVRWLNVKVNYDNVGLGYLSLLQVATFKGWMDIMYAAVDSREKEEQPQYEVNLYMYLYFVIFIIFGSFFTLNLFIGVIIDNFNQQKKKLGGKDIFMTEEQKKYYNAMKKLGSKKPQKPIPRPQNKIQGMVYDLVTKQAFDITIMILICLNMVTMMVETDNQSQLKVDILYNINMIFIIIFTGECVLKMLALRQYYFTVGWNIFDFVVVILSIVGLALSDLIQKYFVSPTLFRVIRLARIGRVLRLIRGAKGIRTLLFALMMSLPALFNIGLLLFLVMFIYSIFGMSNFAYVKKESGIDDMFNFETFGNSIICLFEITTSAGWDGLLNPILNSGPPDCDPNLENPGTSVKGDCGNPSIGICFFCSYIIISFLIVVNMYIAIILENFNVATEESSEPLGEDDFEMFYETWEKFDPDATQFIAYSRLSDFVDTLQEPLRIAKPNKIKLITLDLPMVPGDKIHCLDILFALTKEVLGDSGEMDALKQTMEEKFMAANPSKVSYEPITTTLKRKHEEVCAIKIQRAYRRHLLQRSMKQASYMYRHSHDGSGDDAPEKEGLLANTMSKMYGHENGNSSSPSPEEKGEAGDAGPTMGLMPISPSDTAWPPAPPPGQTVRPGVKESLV

As a reminder, the ED50 is the midpoint of the dose-response relation. Consider `NC(=O)NNCc1ccc(Oc2ccc(F)cc2)c(F)c1` [1-[3-Fluoro-4-(4-fluorophenoxy)benzyl]semicarbazide], for which the median effective dose (ED50) in assay [1] (po, read-out: ED50 against MES) was determined as 3.2 mg/kg.

For the compound `NC(=O)NNCc1ccc(Oc2ccc(F)cc2)cc1` [1-[4-(4-Fluorophenoxy)benzyl]semicarbazide], the median effective dose (ED50) in assay [1] (10 min, iv, 10 min before the test, read-out: ED50 (the dose protecting 50% of animals) against MES) was 4.2 mg/kg. Also, in assay [2] (setting [5]), the “inhibition of voltage-gated sodium currents” value is “dose-dependent inhibition” and the “sensitivity of blocking effect on Na+ currents to the holding voltage” value is “highly sensitive to the holding voltage”. In assay [2] (inactivated sodium channels, read-out: apparent antagonist dissociation constant (Kd) for inactivated sodium channels), the Kd was about 7.5 µM. Besides, the “potency towards Na+ channels in their resting states” value in assay [2] (resting states) is on record as “weak potency”.

As to `CN1CCN(c2ncc(-c3cc(Cl)cc(Cl)c3Cl)c(N)n2)CC1` [BW619C89], the neuroprotective activity result in assay [3] is recorded as “neuroprotective”.

With `Cc1ccc(-c2nc(C)c(CN3CCN(C(c4ccccc4)c4ccccc4)CC3)[nH]2)cc1` [lifarizine], in assay [3], the neuroprotective activity result is listed as “neuroprotective”.

In the case of `Nc1nc2ccc(OC(F)(F)F)cc2s1` [riluzole], the survival result in assay [4] was “prolong survival”.
